Measured values: publication PMC12168975 (Drug Design, Development and Therapy, 2025)
Where a name gives a salt, the structure may show the parent alone. Read-outs that look alike come from different tables or passages of the source.

Legend:
[1] = cited from earlier work
[2] = Stability of simulated plasma; type: physicochemical, rat; conditions: simulated plasma samples; freeze-thaw cycles, room temperature storage and autosampler storage; found to be stable
[3] = Pharmacokinetic drug-drug interaction study of BBR, TOFA and FIGA in rats; type: in vivo, Sprague-Dawley rats
[4] = poor solubility and permeability; cited from earlier work
[5] = cited from earlier work; remark: listed apart in the source
[6] = FIGA co-administered with itraconazole
[7] = FIGA co-administered with rifampin
[8] = FIGA combined with berberine hydrochloride compared to FIGA alone
[9] = TOFA combined with BBR compared to TOFA alone

relative errors (RE %) of stability assessment [2]	effect of concomitant TOFA and FIGA on the pharmacokinetic parameters of BBR ([3]; BBR with vs without TOFA or FIGA)	decrease in CL [3, 8] [fold]	decrease in Tmax [3, 8] [fold]	increase in AUC(0-t) [3, 8] [fold]	increase in Cmax [3, 8] [fold]	decrease in AUC(0-t) [3, 9] [fold]	increase in CL [3, 9] [fold]	increase in time to peak concentration [3, 9] [fold]	Compound	oral bioavailability ([1]; ref 20) [%]	oral bioavailability ([1]; ref 35)	Biopharmaceutics Classification System class [4]	increase of Cmax [5, 6] [%]	increase of bioavailability [5, 6] [%]	reduction of Cmax [5, 7] [%]	reduction of bioavailability [5, 7] [%]
less than 15.0%	no significant differences								COc1ccc2cc3[n+](cc2c1OC)CCc1cc2c(cc1-3)OCO2 [BBR, berberine hydrochloride]	5	lower than 5%	Class IV				
less than 15.0%		1.64	2.09	1.67	2.26				O=C(Nc1nc2cccc(-c3ccc(CN4CCS(=O)(=O)CC4)cc3)n2n1)C1CC1 [FIGA, Filgotinib]				64	45	26	27
less than 15.0%						1.76	1.63	2.49	C[C@@H]1CCN(C(=O)CC#N)C[C@@H]1N(C)c1ncnc2[nH]ccc12 [TOFA, Tofacitinib]							
